Assay [1] addresses Human immunodeficiency virus type 1 protease (Human immunodeficiency virus 1, UniProt Q72874). As to the kind of experiment: Inhibition of HIV-1 protease.
Assay [2] has as its target Human immunodeficiency virus type 1 protease (Human immunodeficiency virus 1) (UniProt Q72874). As to the kind of experiment: In vitro inhibition of HIV-1 protease, activity expressed as CIC95 in whole cell assay.

Broadly, the IC50 is the concentration at which inhibition is half-maximal. A higher IC50 goes with weaker potency in that assay. In assay [1], `COCOc1ccccc1C[C@@H](O)C[C@@H](Cc1ccccc1)C(=O)N[C@H]1c2ccccc2C[C@H]1O` returned an IC50 of 276 nM. That is a sub-micromolar value.
Turning to `NS(=O)(=O)c1ccccc1C[C@@H](O)C[C@@H](Cc1ccccc1)C(=O)N[C@H]1c2ccccc2C[C@H]1O`, the IC50 in assay [1] came out at 290 nM.
As to `CSc1ccccc1C[C@@H](O)C[C@@H](Cc1ccccc1)C(=O)N[C@H]1c2ccccc2C[C@H]1O`, in assay [1], half-maximal inhibition (IC50) was put at 95 nM.
What is called IC95 is the concentration at which the effect reaches the 95% level. Higher therefore signals weaker potency. As for `Cc1ccc(C[C@@H](O)C[C@@H](Cc2ccccc2)C(=O)N[C@H]2c3ccccc3C[C@H]2O)c(C(=O)NC(C)(C)C)c1`, 1.7 nM corresponded to half-maximal inhibition in assay [1] (IC50). In addition, in assay [2], the IC95 was found to be 400 nM.
Regarding `CC(C)(C)NC(=O)[C@@H]1CCCCN1C[C@@H](O)C[C@@H](Cc1ccccc1)C(=O)N[C@H]1c2ccccc2C[C@H]1O`, the midpoint of inhibition in assay [1], the IC50, lay at 80 nM.
In assay [1], `CS(=O)(=O)c1ccccc1C[C@@H](O)C[C@@H](Cc1ccccc1)C(=O)N[C@H]1c2ccccc2C[C@H]1O` yielded an IC50 of 314 nM.
`CC(C)(C)NS(=O)(=O)c1ccccc1C[C@@H](O)C[C@@H](Cc1ccccc1)C(=O)N[C@H]1c2ccccc2C[C@H]1O` had an IC50 in assay [1] of 6 nM.
Take `COc1cc(Oc2ccccc2)ccc1C[C@@H](O)C[C@@H](Cc1ccccc1)C(=O)N[C@H]1c2ccccc2C[C@H]1O`: the IC50 in assay [1] came out at 45 nM.
As to `COc1ccccc1C[C@@H](O)C[C@@H](Cc1ccccc1)C(=O)N[C@H]1c2ccccc2C[C@H]1O`, the IC50 in assay [1] stood at 80 nM.
In assay [1], `COc1ccc(C[C@@H](O)C[C@@H](Cc2ccccc2)C(=O)N[C@H]2c3ccccc3C[C@H]2O)c(OC)c1` had an IC50 of 105 nM.
For `CC(C)(C)NC(=O)c1ccccc1C[C@@H](O)C[C@@H](Cc1ccccc1)C(=O)N[C@H]1c2ccccc2C[C@H]1O`, the IC50 in assay [1] came to 4.7 nM. The same compound registered a concentration for an effect of 95% (IC95) in assay [2] of 800 nM.
`CC(C)COc1ccccc1C[C@@H](O)C[C@@H](Cc1ccccc1)C(=O)N[C@H]1c2ccccc2C[C@H]1O` returned an IC50 in assay [1] of 97 nM. In other words, the double-digit nanomolar range.
In assay [1], `CC(C)(C)NC(=O)[C@@H]1CNCCN1C[C@@H](O)C[C@@H](Cc1ccccc1)C(=O)N[C@H]1c2ccccc2C[C@H]1O` gave an IC50 of 38 nM. This compound also displayed an IC95 in assay [2] of 3000 nM.
`O=C(N[C@H]1c2ccccc2C[C@H]1O)[C@H](Cc1ccccc1)C[C@H](O)Cc1ccccc1O` returned an IC50 in assay [1] of 1600 nM. That is a single-digit micromolar value.
Compound `O=C(N[C@H]1c2ccccc2C[C@H]1O)[C@H](Cc1ccccc1)C[C@H](O)Cc1ccccc1` yielded an IC50 in assay [1] of 1200 nM.

For the origin of these results see ChEMBL document CHEMBL1150540, “Aromatic P1 replacements for the highly potent HIV-1 protease inhibitor CRIXIVAN” (Bioorg Med Chem Lett, 1996).
